According to US7390892B2, “Nucleic acids encoding novel cyclic GMP dependent protein kinases from Elmeria maxima” (Merial Limited, priority 2001, dated 2008):
pIC50: −log10 of the molar value. Converted amounts (≈) assume the structure as drawn. “And” between values parts separate entries of the source, which are not always exact repeats. Equal entries are not always repeated.

Experiments:
[1] = tested on: Mixed-species field isolate of Eimeria DP-924 (E. maxima, E. acervulina, E. mitis); assay: Chicken battery experiment, mixed-species Eimeria field isolate DP-924; format: in vivo; details: chickens, field isolate DP-924, 125 ppm in feed
Text: (§1) Chicken battery experiments have also been conducted to evaluate L-167645 efficacy against mixed-species field isolates of Eimeria. The Eimeria cultures were obtained from grower farms in major broiler-producing states. Two of these field isolates, DP-924 and DP-968, contained E. maxima parasites. Each treatment group consisted of one pen of three one-week old White Leghorn chickens. Animals were placed on medicated feed at doses of L-167645 ranging from 25 to 150 ppm for the duration of the study. After 48 hrs, birds were infected by oral gavage with a total of 1×10^5 sporulated oocysts.

Native E. maxima PKG = Native E. maxima PKG (Eimeria maxima, UniProt Q8MMZ5); assay: PKG catalytic assay, native E. maxima PKG; format: biochemical
Method: E. maxima unsporulated oocysts were harvested from the ceca of chickens seven days after infection with sporulated oocysts and purified using standard methods (Schmatz et al, 1986, J. Protozoology 33, 109-114). Soluble extracts were prepared by vortexing 2×10^9 E. maxima unsporulated oocysts with an equal volume of buffer (10 mM HEPES pH 7.4, 1 mM sodium orthovanadate, 20% glycerol, 0.1 mg/ml Bacitracin and 0.5% Sigma protease inhibitor cocktail P8340), and an equal volume of […] glass beads for 20 minutes. The resulting homogenate was centrifuged (100,000×g, 1 hour) and the supernatant (S100) collected. Native E. maxima PKG activity in the S100 fraction was affinity purified using an 8-AET-cGMP-agarose matrix as described below. • (iv) Isolation and Characterization of Native PKG from P. falciparum
Kinase activity was detected using a peptide substrate and [γ-^33P]-ATP. An aliquot containing the respective enzyme preparations was combined with a reaction mixture (10 μl) whose composition is as follows: 25 mM HEPES pH 7.4, 10 mM MgCl2, 20 mM beta-glycerophosphate, 5 mM beta-mercaptoethanol, 10 μM cGMP, 1 mg/ml BSA, 400 μM Kemptide, 2 μM [γ-^33P]ATP (0.1 mCi/ml). […] In both cases filters were washed with 75 mM phosphoric acid, dried and ^33P-labelled phosphopeptide was detected by liquid scintillation counting.

Native P. falciparum PKG = molecular target: T1, Native P. falciparum PKG (Plasmodium falciparum, UniProt Q8I719); assay: PKG catalytic assay, native P. falciparum PKG; format: biochemical
T1 construct: endogenous in cells; host or cells: P. falciparum NF54, schizont/trophozoite-enriched cultures in human erythrocytes; MonoQ then 8-AET-cGMP-agarose
Method: The NF54 strain of P. falciparum was grown in 5% human O+ red blood cells in RPMI 1640 media supplemented with 10% heat-inactivated human serum and 3% hypoxanthine using modifications of standard conditions (Trager and Jensen, 1976, Science 193, 673-675). Media was changed daily and parasites were diluted into fresh erythrocytes to a parasitemia of 0.2-0.5% every 3 to 4 days; final parasitemia ranged from 4 to 10%. Synchronized cultures (Lambros and Vanderberg, 1979, J. Parasitology 65, 418-420) enriched for schizont and trophozoite stages were prepared in a continuous Percoll gradient (Rivadeneira et al, 1983 J. Protozoology 30, 367-370). […]
A linear NaCl gradient was applied (0-500 mM in 3ml @ 100 ul/min) and 100 ul fractions were collected and assayed for PKG enzyme activity. […] The purification of P. falciparum PKG was monitored by Western blot analysis using a commercially available antipeptide antisera directed at a conserved PKG peptide (Calbiochem Cat. No. 539729). • (v) PKG Catalytic Assay
(§2) Kinase activity was detected using a peptide substrate and [γ-^33P]-ATP. […] In both cases filters were washed with 75 mM phosphoric acid, dried and ^33P-labelled phosphopeptide was detected by liquid scintillation counting.

[2] = tested on: Mixed-species field isolate of Eimeria DP-968 (E. maxima, E. acervulina, E. mitis, E. tenella); assay: Chicken battery experiment, mixed-species Eimeria field isolate DP-968; format: in vivo; details: chickens, field isolate DP-968, 125 ppm in feed
Text: as §1

C. parvum = assay: In vitro tissue culture based assay with C. parvum; format: cell-based
[3] = molecular target: Recombinant E. maxima PKG (Eimeria maxima, UniProt Q8MMZ5); assay: PKG catalytic assay, recombinant E. maxima PKG; format: biochemical
Text: T. gondii was selected as a host cell for recombinant expression of functional E. maxima PKG enzyme. An Eimeria maxima cDNA encoding the PKG open reading frame (ORF) was modified prior to subcloning for expression by appending either an N-terminal or C-terminal FLAG epitope for detection purposes via PCR amplification. DNA fragments encoding FLAG-epitope tagged PKGs were then placed in a T. gondii expression vector under the control of a Toxoplasma α-tubulin promoter (Soldati and Boothroyd, 1993, Science 260, 349-352). The vector encodes bacterial chloramphenicol acetyltransferase (CAT) as a selectable marker for transfection.
T. gondii tachyzoites of the RH strain were maintained by serial passage in primary human foreskin fibroblast cultures (HFF). Host cells were grown in Dulbecco's modified Eagle's medium with 10% heat-inactivated newborn bovine serum. […]
Recombinant FLAG-tagged E. maxima PKG was purified from T. gondii lysates by FLAG immuno-affinity chromatography. […] Protein was measured with a micro BCA reagent (Pierce), using a TCA/sodium deoxycholate step (Brown et al, 1989, Analytical Biochemistry 180, 136-139) to remove residual FLAG peptide prior to quantitation. […]
as §2

P. berghei = assay: Parasitemia in mice infected with P. berghei; format: in vivo; details: Balb C mice, individual mice 1-5
Method: Balb C mice were infected intra-peritoneally with 1×10^6 P. berghei parasites in red blood cells. Two hours later twice daily intra-peritoneal treatment began with L-167645 in 10% DMSO. In the experiments described within, five animals were dosed with 75 milligrams compound per kilogram body weight (mpk) and received two treatments for one day. Five additional mice were dosed at 50 mpk and received two treatments daily for five days. Five control mice were dosed with an equivalent volume of 10% DMSO twice daily for 5 days. Parasite burden was measured by counting infected red blood cells as a function of total red blood cells (% parasitemia) and was performed periodically; -parasitemia on day 8 post-infection are tabulated below.

E. maxima = assay: Efficacy against E. maxima in infected chickens (oocyst counts); format: in vivo; details: 125 ppm in the feed, terminated on day 8
Method: Several studies have been conducted to evaluate the efficacy of […] against E. maxima in infected chickens. For efficacy studies against E. maxima alone, L-167645 was administered in the feed at doses from 25 to 150 ppm starting on day one. Birds were infected with 3.5×10^3 E. maxima sporalated oocysts on day 2 and medicated feed was continuously available at the respective doses for the duration of the study. The experiment was terminated on day 8, intestines were removed and homogenized and compound efficacy was estimated by performing oocyst counts.

Plasmodium falciparum = assay: PFAIV assay: tritiated hypoxanthine incorporation into parasitized red blood cells; format: cell-based; details: Erythrocyte, in vitro cell culture, 48 hours, [3H]-hypoxanthine incorporation, read-out: concentration of compound required to inhibit growth by 50% (IC50)
Method: The PFAIV assay is an in vitro assay designed to identify potential inhibitors of P. falciparum by measuring the incorporation of tritiated hypoxanthine into parasitized red blood cells.
The following method is an adaptation of the method described by Desjardins, R. E. et al, 1979. AAC Vol 16, p710-718:
1. Sixty microliters of a solution of RPMI 1640 media plus gentamycin (1:100 dilution) containing the desired concentration of test compound is added to the wells of a 96-well plate. (For titrations, 120 microliters is added to the top well and the compounds are serially diluted into 60 microliters of media.)
2. Fifty three microliters of parasitized red blood cells is added to the wells. The parasitemia of the culture is approximately 2-3% and the hematocrit is 5%. The red blood cells are diluted in RPMI 1640 media containing 20% human A+ serum and gentamycin.
3. Twelve microliters of RPMI1640 media containing 200 uCi [^3H] - hypoxanthine is added to each well.
4. The plates are incubated at 37° C. for 48 hours under […] (candle jar). After incubation, the plates are frozen overnight (for safety), then thawed and harvested using a manual 96-well harvester onto UNIFILTER GF/B plates.
5. The plates are counted on a Wallac instrument and % inhibition of parasite growth is determined as compared to control wells containing no compound.

Question: How did the “% Reduction in Oocyst Counts” value [1] turn out when CN1CCC(c2cc(-c3ccncc3)c(-c3ccc(F)cc3)[nH]2)CC1 [L-167645, 4-[2-(4-fluorophenyl)-5-(1-methylpiperidine4-yl)-1H-pyrrol-3-yl]pyridine] was run?
Answer: 97%

Question: And the “Relative % Weight Gain” value [1]?
Answer: 108%

Question: And the pIC50 (Native E. maxima PKG)?
Answer: 8.34

Question: And the pIC50 (Native P. falciparum PKG)?
Answer: 8.07

Question: What about the “% Reduction in Oocyst Counts” value [2] of the same compound?
Answer: 86%

Question: And the “Relative % Weight Gain” value [2]?
Answer: 94%

Question: What about the “inhibition of parasitic growth” value (C. parvum) of the same compound?
Answer: effective in inhibiting parasitic growth

Question: And the pIC50 [3]?
Answer: 8.38

Question: And the “% parasitemia 8 days post-infection” value (P. berghei; 50 mpk intra-peritoneal, twice daily for five days, 50 mg/kg)?
Answer: 0% (2×) and 1% (2×) and 3%

Question: And the “% parasitemia 8 days post-infection” value (P. berghei; 75 mpk intra-peritoneal, two treatments for one day, 75 mg/kg)?
Answer: 3% and 4% and 1% (2×) and Dead

Question: What about the “reduction in oocyst counts” value (E. maxima) of the same compound?
Answer: greater than 99%

Question: What about the IC50 (Plasmodium falciparum) of the same compound?
Answer: 2.2 µg/mL (≈ 6.56 µM)
